Consider two compounds from patent US7098233B2 (priority 2001, dated 2006).

Broadly, the pKi is −log10 of the Ki, conventionally taken in molar units. For orientation: pIC50 means −log10 of the IC50, conventionally taken in molar units. Lower therefore signals a high IC50. For orientation: Ki means the dissociation constant of the complex between target and ligand, obtained from inhibition or displacement.

pIC50, pKi: −log10 of the molar value. Like-named read-outs stand apart in the source and are kept apart here.

One assay has as its target T1, D4,4 dopaminergic (Homo sapiens, UniProt P21917).
T1 sequence (P21917 1-419): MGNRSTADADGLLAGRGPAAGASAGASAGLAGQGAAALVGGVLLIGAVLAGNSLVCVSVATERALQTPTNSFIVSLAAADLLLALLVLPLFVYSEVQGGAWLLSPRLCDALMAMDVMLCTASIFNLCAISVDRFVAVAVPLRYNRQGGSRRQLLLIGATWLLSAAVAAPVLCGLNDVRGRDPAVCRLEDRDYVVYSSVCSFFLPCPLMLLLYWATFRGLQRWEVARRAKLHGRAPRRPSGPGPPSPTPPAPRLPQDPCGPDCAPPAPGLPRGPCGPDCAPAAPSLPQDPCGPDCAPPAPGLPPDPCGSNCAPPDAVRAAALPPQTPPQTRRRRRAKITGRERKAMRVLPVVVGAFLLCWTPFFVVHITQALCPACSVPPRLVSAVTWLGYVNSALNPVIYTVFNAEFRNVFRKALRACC
Description: Receptor panel binding: D4,4 dopaminergic.

Another assay concerns the target 5-HT2a (Homo sapiens, UniProt P28223). Briefly: biochemical. It counts as binding.
The target in another assay is D3 dopaminergic (Homo sapiens, UniProt P35462). Description: Receptor panel binding: D3 dopaminergic.
Chain of D3 dopaminergic (P35462 whole entry): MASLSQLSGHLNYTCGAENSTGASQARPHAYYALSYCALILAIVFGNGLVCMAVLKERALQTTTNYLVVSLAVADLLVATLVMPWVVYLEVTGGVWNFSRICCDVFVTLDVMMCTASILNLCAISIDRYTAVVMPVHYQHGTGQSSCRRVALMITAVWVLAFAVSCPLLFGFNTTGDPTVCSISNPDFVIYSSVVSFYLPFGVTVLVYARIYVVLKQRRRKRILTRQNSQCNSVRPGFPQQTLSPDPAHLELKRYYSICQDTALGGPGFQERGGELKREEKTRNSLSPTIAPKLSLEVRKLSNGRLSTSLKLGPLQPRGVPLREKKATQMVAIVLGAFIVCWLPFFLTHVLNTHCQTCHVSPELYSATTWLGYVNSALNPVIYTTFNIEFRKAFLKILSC
Another assay concerns the target D1 dopaminergic (Homo sapiens, UniProt P21728). Briefly: Receptor panel binding: D1 dopaminergic.
The next assay has as its target alpha1a adrenergic (Homo sapiens, UniProt P35348). Briefly: Receptor panel binding: alpha1a adrenergic.
Assay [1] addresses T2, human 5-HT7 receptor stably transfected to CHO cells (Homo sapiens, UniProt P34969).
T2 construct: expressed in transfected cells; host or cells: CHO
Description: 5-HT7 receptor binding, [3H]-LSD displacement.

The target in another assay is 5-HT1b (Homo sapiens, UniProt P28222). Briefly: Binding affinity for serotonin subtype 5-HT1b.
Chain of 5-HT1b (P28222 whole entry, species assumed): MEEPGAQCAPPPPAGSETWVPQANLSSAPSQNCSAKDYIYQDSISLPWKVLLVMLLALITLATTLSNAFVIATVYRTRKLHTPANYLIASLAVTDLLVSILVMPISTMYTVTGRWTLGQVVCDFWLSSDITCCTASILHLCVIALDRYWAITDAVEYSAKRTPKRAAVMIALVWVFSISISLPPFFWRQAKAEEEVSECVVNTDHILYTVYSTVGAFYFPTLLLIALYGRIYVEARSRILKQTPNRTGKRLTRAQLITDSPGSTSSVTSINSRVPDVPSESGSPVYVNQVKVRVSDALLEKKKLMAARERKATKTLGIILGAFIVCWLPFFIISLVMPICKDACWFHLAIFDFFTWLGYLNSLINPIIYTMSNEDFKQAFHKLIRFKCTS
For the next assay, the target named is D2 dopaminergic (Homo sapiens, UniProt P14416). Briefly: Receptor panel binding: D2 dopaminergic.
Chain of D2 dopaminergic (P14416 whole entry): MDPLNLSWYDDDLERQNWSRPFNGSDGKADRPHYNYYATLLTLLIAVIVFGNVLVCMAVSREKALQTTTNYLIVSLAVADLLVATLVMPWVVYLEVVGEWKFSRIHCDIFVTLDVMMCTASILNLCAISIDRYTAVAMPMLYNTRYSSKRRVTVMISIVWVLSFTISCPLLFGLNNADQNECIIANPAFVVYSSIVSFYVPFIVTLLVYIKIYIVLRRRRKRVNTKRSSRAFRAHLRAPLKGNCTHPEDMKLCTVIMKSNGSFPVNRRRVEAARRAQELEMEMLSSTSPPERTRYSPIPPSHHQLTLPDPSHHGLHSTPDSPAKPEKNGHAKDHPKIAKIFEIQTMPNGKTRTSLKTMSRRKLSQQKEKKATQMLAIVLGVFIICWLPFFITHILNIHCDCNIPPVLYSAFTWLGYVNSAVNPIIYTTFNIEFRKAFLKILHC

T2 sequence (P34969 whole entry): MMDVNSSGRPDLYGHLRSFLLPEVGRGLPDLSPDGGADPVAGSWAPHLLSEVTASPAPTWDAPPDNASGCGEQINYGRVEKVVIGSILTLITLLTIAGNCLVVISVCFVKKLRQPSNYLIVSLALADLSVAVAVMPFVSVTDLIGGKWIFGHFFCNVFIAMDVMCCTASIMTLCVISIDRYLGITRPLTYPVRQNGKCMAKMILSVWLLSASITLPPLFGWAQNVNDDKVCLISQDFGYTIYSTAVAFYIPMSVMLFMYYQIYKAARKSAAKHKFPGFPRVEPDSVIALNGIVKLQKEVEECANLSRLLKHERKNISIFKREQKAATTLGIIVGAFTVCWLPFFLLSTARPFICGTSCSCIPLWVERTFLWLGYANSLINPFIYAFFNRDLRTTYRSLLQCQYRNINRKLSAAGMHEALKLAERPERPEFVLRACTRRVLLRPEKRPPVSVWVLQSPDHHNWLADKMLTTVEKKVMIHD
Chain of alpha1a adrenergic (P35348 whole entry): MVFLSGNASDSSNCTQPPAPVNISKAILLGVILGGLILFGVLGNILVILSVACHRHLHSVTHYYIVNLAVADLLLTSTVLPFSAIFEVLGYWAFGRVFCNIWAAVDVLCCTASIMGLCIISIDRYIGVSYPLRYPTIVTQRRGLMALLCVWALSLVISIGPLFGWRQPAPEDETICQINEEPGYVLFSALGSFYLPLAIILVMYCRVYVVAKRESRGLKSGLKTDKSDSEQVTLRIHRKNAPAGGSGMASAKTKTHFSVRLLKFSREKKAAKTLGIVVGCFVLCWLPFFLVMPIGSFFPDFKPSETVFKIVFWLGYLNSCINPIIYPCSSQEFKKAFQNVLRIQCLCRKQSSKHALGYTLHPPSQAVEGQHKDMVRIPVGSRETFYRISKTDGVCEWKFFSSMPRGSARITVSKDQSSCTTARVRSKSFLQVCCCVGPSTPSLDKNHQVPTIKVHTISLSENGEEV
Chain of D1 dopaminergic (P21728 whole entry): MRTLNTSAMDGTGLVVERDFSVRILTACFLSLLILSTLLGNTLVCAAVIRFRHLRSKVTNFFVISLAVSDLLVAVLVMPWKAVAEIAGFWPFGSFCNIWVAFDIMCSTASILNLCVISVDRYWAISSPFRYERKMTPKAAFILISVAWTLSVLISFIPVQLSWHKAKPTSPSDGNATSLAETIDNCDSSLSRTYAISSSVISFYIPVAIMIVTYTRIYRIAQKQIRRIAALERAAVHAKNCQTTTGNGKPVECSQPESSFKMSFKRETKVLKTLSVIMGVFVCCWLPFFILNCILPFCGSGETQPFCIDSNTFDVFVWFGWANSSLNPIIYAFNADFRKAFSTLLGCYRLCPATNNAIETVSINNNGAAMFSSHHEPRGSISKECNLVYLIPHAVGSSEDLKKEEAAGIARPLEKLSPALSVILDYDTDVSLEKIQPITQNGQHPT
Chain of 5-HT2a (P28223 whole entry): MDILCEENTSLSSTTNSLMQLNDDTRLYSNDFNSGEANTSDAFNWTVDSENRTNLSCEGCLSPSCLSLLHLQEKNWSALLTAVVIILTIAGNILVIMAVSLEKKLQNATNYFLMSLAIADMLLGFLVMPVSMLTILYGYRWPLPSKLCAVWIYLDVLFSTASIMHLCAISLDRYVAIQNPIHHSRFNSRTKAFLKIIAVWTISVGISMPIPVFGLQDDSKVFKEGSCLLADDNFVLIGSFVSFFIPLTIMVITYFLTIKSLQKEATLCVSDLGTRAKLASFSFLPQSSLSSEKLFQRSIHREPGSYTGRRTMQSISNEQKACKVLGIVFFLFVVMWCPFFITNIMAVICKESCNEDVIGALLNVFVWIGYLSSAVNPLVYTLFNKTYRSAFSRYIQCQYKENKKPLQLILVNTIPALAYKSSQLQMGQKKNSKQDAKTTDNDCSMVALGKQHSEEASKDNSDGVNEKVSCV

`CCc1[nH]c2ccc(Cl)cc2c1CCN(C)C` [ST 2253, 5-Chloro-2-ethyl-N,N-dimethyltryptamine]: the pKi at D4,4 dopaminergic was at most 6.00; at 5-HT2a, below 6.00; on D3 dopaminergic, at most 6.00; on D1 dopaminergic, at most 6.00; at alpha1a adrenergic, at most 6.00; in assay [1], below 6.00. In addition, the figures for the pKi at 5-HT1b and at D2 dopaminergic were below 6.00 and at most 6.00, respectively. The negative logarithm of the IC50 (pIC50) in assay [1] is below 6.00. For the same compound, the “affinity for human recombinant 5-HT7 receptor (in words)” value in assay [1] was “negligible”. In addition, the inhibition constant Ki in assay [1] (read-out: Affinity (Ki) 5-HT7, Table 2, cell printed in μM) is above 1 µM.

Regarding `Cc1[nH]c2ccc(Cl)cc2c1CCN(C)C` [ST 1936, 5-chloro-2-methyl-N,N-dimethyltryptamine], the pKi was at most 6.00 at D4,4 dopaminergic; at most 6.00 at D3 dopaminergic; at most 6.00 at D1 dopaminergic; at most 6.00 on alpha1a adrenergic; 6.77 in assay [1]; below 6.00 on 5-HT1b. The compound also had a pKi on D2 dopaminergic of at most 6.00. The pIC50 in assay [1] is 6.28. Also, the “affinity for human recombinant 5-HT7 receptor (in words)” value in assay [1] is “moderate”.
